Where a name gives a salt, the structure may show the parent alone.
Assays:
[1] = Stability of conjugates in Simulated Gastric Fluid (SGF); format: in vitro ADME; conditions: SGF pH 1.6 with pepsin, 37° C., 1 μM compound
Description: Assay 1. Stability of conjugates in Simulated Gastric Fluid (SGF). This assay was used to assess the stability of a conjugate in a stomach.
Medium was prepared by dissolving 2 g of sodium chloride in 0.6 L in ultrapure water (MilliQ®, Millipore Sigma, Darmstadt, Germany). The pH was adjusted to 1.6 with 1N hydrochloric acid, and the volume was then adjusted to 1 L with purified water.
60 mg FaSSIF powder (Biorelevant™, London, UK) were dissolved in 500 mL buffer (above). Pepsin was added (0.1 mg/mL) (Millipore Sigma, Darmstadt, Germany), and the solution was stirred. The resulting SGF media were used fresh for each experiment.
(§1) Test compounds were dissolved in DMSO stock to 1 mM. An aliquot of the DMSO stock solution was removed and diluted in the SGF Media in 15 mL falcon tubes to generate a total compound concentration of 1 μM. A 1 mL aliquot was immediately removed and diluted once with 1 volume of acetonitrile for TO timepoint. The mixture was sealed and mixed at 37° C. in an incubator. Aliquots (1 mL) were removed at regular intervals and immediately quenched by the addition of 1 volume of acetonitrile. The resulting samples were analyzed by LC/MS to determine degradation rates in SGF.

[2] = Stability of conjugates in Simulated Intestinal Fluid (SIF); format: in vitro ADME; conditions: SIF pH 6.7 with pancreatin, 37° C., 1 μM compound
Description: Assay 2. Stability of conjugates in Simulated Intestinal Fluid (SIF). This assay was used to assess the stability of a conjugate in a small intestine.
Phosphate buffer was prepared by dissolving 0.42 g of sodium hydroxide pellets and 3.95 g of monobasic sodium phosphate monohydrate and 6.19 g of sodium chloride in ultrapure water (MilliQ®, Millipore Sigma, Darmstadt, Germany). The pH was adjusted to 6.7 using aq. HCl and aq. NaOH, as necessary, and the solution was diluted with ultrapure water to produce 1 L of the pH 6.7 buffer.
112 mg FaSSIF powder (Biorelevant™, London, UK) was dissolved in 50 mL of the pH 6.7 buffer. 2 to 3 mL of the resulting solution were then added to 500 mg pancreatin (Millipore Sigma, Darmstadt, Germany). The resulting mixture was agitated by finger tapping the vessel containing the mixture until milky suspension formed. At this time, the remainder of the 50 mL FaSSiF/pH 6.7 buffer solution was added. The resulting suspension was flipped upside down 10 times to produce SIF, which was used fresh.
as §1, with “SIF media” for “SGF Media”, “produce” for “generate”, “mixture with a tested” for “total”, “agitated” for “mixed”, “rates” for “rates in SGF.”

naïve CD4+ T cells = assay: Human Regulatory T Cell Differentiation Assay; format: cell-based; conditions: 6 days; for Cell viability % DMSO: viability dye; for activity at 3000 µM: IL-2, 3 mM; for activity at 100 µM: IL-2, 100 μM
Description: Peripheral blood mononuclear cells (PBMCs) from whole blood donated by health volunteers were separated by Ficoll-Paque gradient centrifugation and naïve CD4^+ T cells were subsequently isolated using magnet beads (EasySep™ Human Naïve CD4^+ T Cell Isolation Kit, Cambridge, Mass.). For regulatory T cell (Treg) differentiation assay, naïve CD4^+ T cells were cultured (1-10×10^4 cells) in CTS OpTmizer medium for 6 days and stimulated with 5 ng/ml TGF-β, 100 U/ml IL-2, and ImmunoCult™ Human […] T Cell Activator; Stemcell #10990) with/without our Compounds. Cell viability was determined using a viability dye (eBioscience Fixable Viability Dye eFluor 780: ThermoFisher 65-0865-14) at 1:500 dilution. The cells were gated for Treg, defined as Live, CD11c^−, CD14^−, CD19^−, CD8^−, CD4^+, CD3^+, CD25^+, FOXP3^+. Percent (%) Tregs were calculated as percentage of CD4^+, CD25^+, FOXP3^+ cells over total CD4^+ T cells. Statistical analysis was performed with GraphPad Prism Software Using One-Way ANOVA.

[3] = Homo sapiens, 144 h, TGF-β, read-out: Treg induction % DMSO

CCC(=O)OC[C@H]1O[C@@H](OC(=O)/C=C/C(=O)OC)[C@H](OC(=O)CC)[C@@H](OC(=O)CC)[C@H]1O [Compound 47, (2S,3R,4S,5S,6R)-5-hydroxy-3,4-bis(propanoyloxy)-6-[(propanoyloxy)methyl]oxan-2-yl 1-methyl (2E)-but-2-enedioate]
Assay 1 (SGF) (% Remaining @ 1 hour) [1]: C (C: >75% of the tested compound remaining) | Assay 2 (SIF) (% @ Remaining 4 hours) [2]: A (A: <25% of the tested compound remaining)

CCC(=O)O[C@H]1[C@H](OC(=O)/C=C/C(=O)OC)OC[C@@H](OC(=O)CC)[C@H]1OC(=O)CC [Compound 6, Methyl ((2S,3R,4R,5R)-3,4,5-tris(propionyloxy)tetrahydro-2H-pyran-2-yl) fumarate]
Assay 1 (SGF) (% Remaining @ 1 hour) [1]: C (C: >75% of the tested compound remaining) | Assay 2 (SIF) (% @ Remaining 4 hours) [2]: A (A: <25% of the tested compound remaining)

CCCC(=O)O [butyric Acid]
Cell viability % DMSO (naïve CD4+ T cells; 3 mM): − (<90%: −) | activity at 3000 µM (naïve CD4+ T cells; [3]): < 90%

CCC(=O)O[C@@H]1O[C@H](COC(=O)/C=C/C(=O)OC)[C@@H](OC(=O)CC)[C@H](OC(=O)CC)[C@H]1OC(=O)CC [Compound 22, Methyl (((2R,3R,4S,5R,6S)-3,4,5,6-tetrakis(propionyloxy)tetrahydro-2H-pyran-2-yl)methyl) fumarate]
Assay 1 (SGF) (% Remaining @ 1 hour) [1]: C (C: >75% of the tested compound remaining) | Assay 2 (SIF) (% @ Remaining 4 hours) [2]: A (A: <25% of the tested compound remaining)

CCC(=O)O[C@H]1[C@@H](OC(=O)CC)[C@@H](CO)O[C@H](OC(=O)/C=C/C(=O)OC)[C@@H]1OC(=O)CC [Compound 48, (2R,3R,4S,5S,6R)-6-(hydroxymethyl)-3,4,5-tris(propanoyloxy)oxan-2-yl 1-methyl (2E)-but-2-enedioate]
Assay 1 (SGF) (% Remaining @ 1 hour) [1]: C (C: >75% of the tested compound remaining) | Assay 2 (SIF) (% @ Remaining 4 hours) [2]: A (A: <25% of the tested compound remaining)

CCC(=O)O [propionic acid]
Cell viability % DMSO (naïve CD4+ T cells; 3 mM): = (90% > <110%: =) | activity at 3000 µM (naïve CD4+ T cells; [3]): > 130%

CC(=O)O [acetic acid]
Cell viability % DMSO (naïve CD4+ T cells; 1 mM): = (90% > <110%: =) | Cell viability % DMSO (naïve CD4+ T cells; 3 mM): = (90% > <110%: =) | activity at 1000 µM (naïve CD4+ T cells; Homo sapiens, 144 h, TGF-β, IL-2, 1 mM, read-out: Treg induction % DMSO): 110 to 130% | activity at 3000 µM (naïve CD4+ T cells; [3]): > 130%

CCCC(=O)O[C@H]1[C@@H](OC(=O)CCC)[C@@H](CO)O[C@H](OC(=O)/C=C/C(=O)OC)[C@@H]1OC(=O)CCC [Compound 45, 1-methyl (2R,3R,4S,5S,6R)-3,4,5-tris(butanoyloxy)-6-(hydroxymethyl)oxan-2-yl (2E)-but-2-enedioate]
Assay 1 (SGF) (% Remaining @ 1 hour) [1]: C (C: >75% of the tested compound remaining) | Assay 2 (SIF) (% @ Remaining 4 hours) [2]: A (A: <25% of the tested compound remaining)

CCC(=O)OC[C@H]1O[C@@H](OC(=O)CC)[C@H](OC(=O)CC)[C@@H](OC(=O)CC)[C@H]1OC(=O)/C=C/C(=O)OC [Compound 51, 1-methyl (2R,3S,4S,5R,6S)-4,5,6-tris(propanoyloxy)-2-[(propanoyloxy)methyl]oxan-3-yl (2E)-but-2-enedioate]
Assay 1 (SGF) (% Remaining @ 1 hour) [1]: C (C: >75% of the tested compound remaining) | Assay 2 (SIF) (% @ Remaining 4 hours) [2]: A (A: <25% of the tested compound remaining)

CCC(=O)O[C@H]1[C@H](OC(=O)CC)[C@@H](OC(=O)/C=C/C(=O)OC)O[C@@H](C)[C@H]1OC(=O)CC [Compound 21, Methyl ((2R,3S,4R,5R,6S)-6-methyl-3,4,5-tris(propionyloxy)tetrahydro-2H-pyran-2-yl) fumarate]
Assay 1 (SGF) (% Remaining @ 1 hour) [1]: C (C: >75% of the tested compound remaining) | Assay 2 (SIF) (% @ Remaining 4 hours) [2]: B (B: 25-75% of the tested compound remaining)

COC(=O)/C=C/C(=O)Oc1ccc(-c2oc3cc(OC(=O)/C=C/C(=O)OC)cc(OC(=O)/C=C/C(=O)OC)c3c(=O)c2OC(=O)/C=C/C(=O)OC)cc1 [Compound 54, 01-methyl O4-[4-[3,5,7-tris[[(E)-4-methoxy-4-oxo-but-2-enoyl]oxy]-4-oxo-chromen-2-yl]phenyl] (E)-but-2-enedioate]
Assay 1 (SGF) (% Remaining @ 1 hour) [1]: C (C: >75% of the tested compound remaining) | Assay 2 (SIF) (% @ Remaining 4 hours) [2]: A (A: <25% of the tested compound remaining)

COC(=O)/C=C/C(=O)Oc1cc(OC(=O)/C=C/C(=O)OC)c2c(c1)O[C@H](c1ccc(OC(=O)/C=C/C(=O)OC)c(OC(=O)/C=C/C(=O)OC)c1)[C@H](OC(=O)/C=C/C(=O)OC)C2 [Compound 53, O4-[2-[(E)-4-methoxy-4-oxo-but-2-enoyl]oxy-4-[(2R,3R)-3,5,7-tris[[(E)-4-methoxy-4-oxo-but-2-enoyl]oxy]chroman-2-yl]phenyl] O1-methyl (E)-but-2-enedioate]
Assay 1 (SGF) (% Remaining @ 1 hour) [1]: C (C: >75% of the tested compound remaining) | Assay 2 (SIF) (% @ Remaining 4 hours) [2]: A (A: <25% of the tested compound remaining)

CCC(=O)O[C@H]1O[C@H](COC(=O)/C=C/C(=O)OC)[C@@H](OC(=O)CC)[C@H](OC(=O)CC)[C@H]1OC(=O)CC [Compound 50, 1-methyl 4-[(2R,3R,4S,5R,6R)-3,4,5,6-tetrakis(propanoyloxy)oxan-2-yl]methyl (2E)-but-2-enedioate]
Assay 1 (SGF) (% Remaining @ 1 hour) [1]: C (C: >75% of the tested compound remaining) | Assay 2 (SIF) (% @ Remaining 4 hours) [2]: A (A: <25% of the tested compound remaining)

COC(=O)/C=C/C(=O)Oc1cc(OC(=O)/C=C/C(=O)OC)c2c(=O)c(OC(=O)/C=C/C(=O)OC)c(-c3ccc(OC(=O)/C=C/C(=O)OC)c(OC(=O)/C=C/C(=O)OC)c3)oc2c1 [Compound 55, O4-[2-[(E)-4-methoxy-4-oxo-but-2-enoyl]oxy-4-[3,5,7-tris[[(E)-4-methoxy-4-oxo-but-2-enoyl]oxy]-4-oxo-chromen-2-yl]phenyl] O1-methyl (E)-but-2-enedioate]
Assay 1 (SGF) (% Remaining @ 1 hour) [1]: C (C: >75% of the tested compound remaining) | Assay 2 (SIF) (% @ Remaining 4 hours) [2]: A (A: <25% of the tested compound remaining)

CN(CCOc1ccc(CC2SC(=O)NC2=O)cc1)c1ccccn1 (stereo not shown) [rosiglitazone, reference compound]
Cell viability % DMSO (naïve CD4+ T cells; 10 μM): = (90% > <110%: =) | Cell viability % DMSO (naïve CD4+ T cells; 100 μM): − (<90%: −) | activity at 10 µM (naïve CD4+ T cells; Homo sapiens, 144 h, TGF-β, IL-2, 10 μM, read-out: Treg induction % DMSO): 90 to 110% | activity at 100 µM (naïve CD4+ T cells; [3]): 90 to 110%

CC[C@H]1[C@@H](O)[C@@H]2[C@H](CC[C@]3(C)[C@@H]([C@H](C)CCC(=O)O)CC[C@@H]23)[C@@]2(C)CC[C@@H](O)C[C@@H]12 [obeticholic acid, reference compound]
Cell viability % DMSO (naïve CD4+ T cells; 100 μM): = (90% > <110%: =) | activity at 100 µM (naïve CD4+ T cells; [3]): 110 to 130%

CC(O)CC(=O)[O-].[Na+] (stereo not drawn) [sodium β-hydroxybutyrate]
Cell viability % DMSO (naïve CD4+ T cells; 2 mM): = (90% > <110%: =) | Cell viability % DMSO (naïve CD4+ T cells; 20 mM): − (<90%: −) | activity at 2000 µM (naïve CD4+ T cells; Homo sapiens, 144 h, TGF-β, IL-2, 2 mM, read-out: Treg induction % DMSO): 110 to 130% | activity at 20000 µM (naïve CD4+ T cells; Homo sapiens, 144 h, TGF-β, IL-2, 20 mM, read-out: Treg induction % DMSO): 90 to 110%

From US20210299079A1, “MONOMETHYL FUMARATE-CARRIER CONJUGATES AND METHODS OF THEIR USE” (Flagship Pioneering Innovations V, Inc., priority 2018, published 2021)
